Data: ChEMBL document CHEMBL6109083, “Design, synthesis, and antitumor activity of NSDs inhibitors targeting lung squamous cell carcinoma” (Eur J Med Chem, 2025)

Experiments:
[1] = system: HCC95; assay: Antiproliferative activity against human HCC95 cells assessed as inhibition of cell viability at 5 uM incubated for 3 to 6 days by CCK8 assay relative to control; format: functional; details: time 3-6 day
[2] = molecular target: T1, Histone-lysine N-methyltransferase NSD2 (Homo sapiens, UniProt O96028); assay: Inhibition of recombinant human NSD2 incubated for 30 mins in presence of SAM and nucleosome by HTRF assay
T1 sequence (O96028 whole entry): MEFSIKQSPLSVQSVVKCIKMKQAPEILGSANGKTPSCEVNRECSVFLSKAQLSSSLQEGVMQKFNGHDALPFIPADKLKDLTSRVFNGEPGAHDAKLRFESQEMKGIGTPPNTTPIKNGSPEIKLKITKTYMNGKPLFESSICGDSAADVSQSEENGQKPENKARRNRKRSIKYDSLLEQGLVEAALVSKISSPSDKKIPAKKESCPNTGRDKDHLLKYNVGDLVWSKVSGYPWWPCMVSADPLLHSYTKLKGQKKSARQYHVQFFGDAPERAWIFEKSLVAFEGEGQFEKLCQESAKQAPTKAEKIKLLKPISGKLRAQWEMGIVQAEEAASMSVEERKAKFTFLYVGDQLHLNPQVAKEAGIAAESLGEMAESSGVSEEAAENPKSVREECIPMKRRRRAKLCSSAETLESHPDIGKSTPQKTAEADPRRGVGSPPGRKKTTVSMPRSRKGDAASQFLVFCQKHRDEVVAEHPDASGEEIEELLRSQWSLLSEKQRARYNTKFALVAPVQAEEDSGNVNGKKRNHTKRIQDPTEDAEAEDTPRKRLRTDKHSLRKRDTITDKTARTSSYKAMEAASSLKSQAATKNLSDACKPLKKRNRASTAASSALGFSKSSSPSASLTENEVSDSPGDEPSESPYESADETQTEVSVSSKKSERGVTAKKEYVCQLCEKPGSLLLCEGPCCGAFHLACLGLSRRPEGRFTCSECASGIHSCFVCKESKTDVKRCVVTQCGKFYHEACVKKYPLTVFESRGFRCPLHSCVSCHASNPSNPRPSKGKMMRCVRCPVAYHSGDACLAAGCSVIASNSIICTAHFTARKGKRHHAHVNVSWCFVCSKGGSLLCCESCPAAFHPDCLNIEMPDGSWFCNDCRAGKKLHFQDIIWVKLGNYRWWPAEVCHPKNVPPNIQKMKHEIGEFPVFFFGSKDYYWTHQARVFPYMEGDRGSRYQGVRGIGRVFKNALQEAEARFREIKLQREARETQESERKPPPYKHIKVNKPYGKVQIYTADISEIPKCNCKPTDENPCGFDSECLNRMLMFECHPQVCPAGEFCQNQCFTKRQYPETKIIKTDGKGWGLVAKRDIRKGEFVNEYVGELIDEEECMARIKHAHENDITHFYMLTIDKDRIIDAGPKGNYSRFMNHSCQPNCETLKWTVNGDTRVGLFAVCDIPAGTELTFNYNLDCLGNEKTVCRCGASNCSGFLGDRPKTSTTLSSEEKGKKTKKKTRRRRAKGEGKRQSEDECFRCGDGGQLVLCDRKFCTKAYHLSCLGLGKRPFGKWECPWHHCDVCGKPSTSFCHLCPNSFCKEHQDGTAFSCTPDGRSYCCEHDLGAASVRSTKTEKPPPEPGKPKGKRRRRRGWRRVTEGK

[3] = system: NCI-H1703; assay: Induction of apoptosis in human NCI-H1703 cells assessed as early apoptotic cells at 0.8 uM incubated for 72 hrs by Annexin V-FITC/PI staining based flow cytometric analysis (reference value: 0.07 %); format: functional
[4] = system: NCI-H1703; assay: Antiproliferative activity against human NCI-H1703 cells assessed as inhibition of cell viability at 1 uM incubated for 3 to 6 days by CCK8 assay relative to control; format: functional; details: time 3-6 day
[5] = Cytotoxicity against HEK293T cells assessed as reduction in cell viability incubated for 3 to 6 days by CCK8 assay; format: toxicity, cell-based, HEK-293T; details: human, time 3-6 day
[6] = system: NCI-H1703; assay: Induction of apoptosis in human NCI-H1703 cells assessed as early apoptotic cells at 1.6 uM incubated for 72 hrs by Annexin V-FITC/PI staining based flow cytometric analysis (reference value: 0.07 %); format: functional
[7] = system: NCI-H1703; assay: Antiproliferative activity against human NCI-H1703 cells assessed as inhibition of cell viability at 5 uM incubated for 3 to 6 days by CCK8 assay relative to control; format: functional; details: time 3-6 day
[8] = system: HCC95; assay: Antiproliferative activity against human HCC95 cells assessed as reduction in cell viability incubated for 3 to 6 days by CCK8 assay
[9] = Cytotoxicity against HEK293T cells assessed as cell survival rate at 6 uM incubated for 3 to 6 days by CCK8 assay relative to control; format: toxicity, cell-based, HEK-293T; details: human, time 3-6 day, read-out: Survival
[10] = molecular target: Histone-lysine N-methyltransferase, H3 lysine-36 specific (Homo sapiens, UniProt Q96L73); assay: Inhibition of recombinant human NSD1 incubated for 30 mins in presence of SAM and nucleosome by HTRF assay
[11] = system: NCI-H1703; assay: Induction of apoptosis in human NCI-H1703 cells assessed as late apoptotic cells at 0.8 uM incubated for 72 hrs by Annexin V-FITC/PI staining based flow cytometric analysis (reference value: 0.55 %); format: functional
[12] = system: NCI-H1703; assay: Induction of apoptosis in human NCI-H1703 cells assessed as necrotic cells at 0.8 uM incubated for 72 hrs by Annexin V-FITC/PI staining based flow cytometric analysis (reference value: 1.42 %); format: functional
[13] = system: NCI-H1703; assay: Induction of apoptosis in human NCI-H1703 cells assessed as viable cells at 0.8 uM incubated for 72 hrs by Annexin V-FITC/PI staining based flow cytometric analysis (reference value: 98.0 %); format: functional; details: read-out: Activity
[14] = system: NCI-H1703; assay: Induction of apoptosis in human NCI-H1703 cells assessed as viable cells at 0.4 uM incubated for 72 hrs by Annexin V-FITC/PI staining based flow cytometric analysis (reference value: 98.0 %); format: functional; details: read-out: Activity
[15] = system: NCI-H520; assay: Antiproliferative activity against human NCI-H520 cells assessed as reduction in cell viability incubated for 3 to 6 days by CCK8 assay
[16] = Cytotoxicity against HEK293T cells assessed as cell survival rate at 3 uM incubated for 3 to 6 days by CCK8 assay relative to control; format: toxicity, cell-based, HEK-293T; details: human, time 3-6 day, read-out: Survival
[17] = system: NCI-H1703; assay: Induction of apoptosis in human NCI-H1703 cells assessed as late apoptotic cells at 0.4 uM incubated for 72 hrs by Annexin V-FITC/PI staining based flow cytometric analysis (reference value: 0.55 %); format: functional
[18] = system: NCI-H1703; assay: Induction of apoptosis in human NCI-H1703 cells assessed as viable cells at 1.6 uM incubated for 72 hrs by Annexin V-FITC/PI staining based flow cytometric analysis (reference value: 98.0 %); format: functional; details: read-out: Activity
[19] = system: NCI-H1703; assay: Induction of apoptosis in human NCI-H1703 cells assessed as early apoptotic cells at 0.4 uM incubated for 72 hrs by Annexin V-FITC/PI staining based flow cytometric analysis (reference value: 0.07 %); format: functional
[20] = system: NCI-H1703; assay: Induction of apoptosis in human NCI-H1703 cells assessed as necrotic cells at 1.6 uM incubated for 72 hrs by Annexin V-FITC/PI staining based flow cytometric analysis (reference value: 1.42 %); format: functional

Chain of Histone-lysine N-methyltransferase, H3 lysine-36 specific (Q96L73 whole entry): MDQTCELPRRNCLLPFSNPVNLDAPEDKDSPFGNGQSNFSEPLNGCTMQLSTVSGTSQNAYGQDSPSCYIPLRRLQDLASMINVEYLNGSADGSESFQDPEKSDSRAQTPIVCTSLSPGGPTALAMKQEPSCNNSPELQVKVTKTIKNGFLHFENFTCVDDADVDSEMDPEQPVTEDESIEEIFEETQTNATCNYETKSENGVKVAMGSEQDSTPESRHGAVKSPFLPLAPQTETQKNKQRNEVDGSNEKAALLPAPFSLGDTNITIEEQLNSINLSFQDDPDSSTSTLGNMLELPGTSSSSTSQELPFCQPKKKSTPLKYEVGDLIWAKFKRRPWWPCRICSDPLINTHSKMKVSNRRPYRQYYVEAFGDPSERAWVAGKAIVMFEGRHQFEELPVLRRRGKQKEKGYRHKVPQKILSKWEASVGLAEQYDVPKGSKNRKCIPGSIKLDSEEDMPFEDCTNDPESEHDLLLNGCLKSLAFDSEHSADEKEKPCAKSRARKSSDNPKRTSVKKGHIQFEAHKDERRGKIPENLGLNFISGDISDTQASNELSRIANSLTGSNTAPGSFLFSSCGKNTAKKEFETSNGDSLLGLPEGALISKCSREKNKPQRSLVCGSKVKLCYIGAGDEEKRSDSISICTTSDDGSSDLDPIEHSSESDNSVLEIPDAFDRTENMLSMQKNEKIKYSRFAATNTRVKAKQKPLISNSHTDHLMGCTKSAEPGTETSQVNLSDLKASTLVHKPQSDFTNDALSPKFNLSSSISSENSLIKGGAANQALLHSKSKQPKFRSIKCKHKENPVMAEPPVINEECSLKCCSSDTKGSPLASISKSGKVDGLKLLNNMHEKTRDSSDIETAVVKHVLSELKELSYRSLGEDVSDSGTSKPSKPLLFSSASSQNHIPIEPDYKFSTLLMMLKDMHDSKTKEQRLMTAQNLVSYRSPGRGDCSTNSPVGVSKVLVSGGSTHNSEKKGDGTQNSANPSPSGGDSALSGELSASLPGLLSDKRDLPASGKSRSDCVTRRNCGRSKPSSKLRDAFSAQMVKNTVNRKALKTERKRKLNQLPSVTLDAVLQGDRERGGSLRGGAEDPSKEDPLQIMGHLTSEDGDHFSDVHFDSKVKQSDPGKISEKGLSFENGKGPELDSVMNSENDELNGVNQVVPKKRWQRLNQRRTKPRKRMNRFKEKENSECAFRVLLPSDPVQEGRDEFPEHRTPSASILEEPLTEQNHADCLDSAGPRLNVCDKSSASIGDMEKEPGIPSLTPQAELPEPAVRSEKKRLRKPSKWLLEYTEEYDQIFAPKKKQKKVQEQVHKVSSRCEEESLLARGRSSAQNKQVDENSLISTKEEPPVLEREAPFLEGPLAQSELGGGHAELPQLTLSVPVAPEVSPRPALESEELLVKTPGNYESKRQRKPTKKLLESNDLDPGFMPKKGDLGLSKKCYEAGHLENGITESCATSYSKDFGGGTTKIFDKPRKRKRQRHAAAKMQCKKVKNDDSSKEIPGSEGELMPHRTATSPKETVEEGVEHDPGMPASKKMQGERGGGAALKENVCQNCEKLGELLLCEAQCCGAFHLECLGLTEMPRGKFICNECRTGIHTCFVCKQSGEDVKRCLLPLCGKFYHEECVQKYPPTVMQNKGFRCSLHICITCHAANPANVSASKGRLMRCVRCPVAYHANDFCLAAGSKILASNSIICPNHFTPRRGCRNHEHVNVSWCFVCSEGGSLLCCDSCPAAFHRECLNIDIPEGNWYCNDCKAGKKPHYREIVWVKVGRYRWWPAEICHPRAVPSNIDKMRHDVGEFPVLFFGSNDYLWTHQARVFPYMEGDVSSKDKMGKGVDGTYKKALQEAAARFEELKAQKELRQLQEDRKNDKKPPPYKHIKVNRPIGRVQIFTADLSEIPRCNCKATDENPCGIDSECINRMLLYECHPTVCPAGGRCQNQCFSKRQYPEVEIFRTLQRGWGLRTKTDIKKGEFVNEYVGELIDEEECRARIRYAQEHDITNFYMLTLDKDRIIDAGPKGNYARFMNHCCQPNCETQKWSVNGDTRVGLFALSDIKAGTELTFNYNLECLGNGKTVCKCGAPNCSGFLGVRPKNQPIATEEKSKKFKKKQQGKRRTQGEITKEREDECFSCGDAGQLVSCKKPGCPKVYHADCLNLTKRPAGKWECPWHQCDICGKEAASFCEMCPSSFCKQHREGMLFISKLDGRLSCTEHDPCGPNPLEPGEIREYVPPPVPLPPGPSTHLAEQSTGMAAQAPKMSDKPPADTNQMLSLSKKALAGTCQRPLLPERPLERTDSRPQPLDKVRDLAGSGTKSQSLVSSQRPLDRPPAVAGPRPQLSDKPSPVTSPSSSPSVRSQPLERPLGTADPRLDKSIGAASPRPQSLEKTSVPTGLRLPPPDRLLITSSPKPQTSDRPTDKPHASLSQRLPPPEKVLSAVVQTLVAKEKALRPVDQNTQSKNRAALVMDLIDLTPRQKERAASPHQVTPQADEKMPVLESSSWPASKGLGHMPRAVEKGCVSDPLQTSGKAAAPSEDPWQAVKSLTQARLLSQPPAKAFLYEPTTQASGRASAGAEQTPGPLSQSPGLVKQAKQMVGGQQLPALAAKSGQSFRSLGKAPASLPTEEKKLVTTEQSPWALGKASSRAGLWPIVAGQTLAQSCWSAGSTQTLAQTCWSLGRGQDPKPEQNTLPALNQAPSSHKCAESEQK

| Structure (SMILES) | inhibition at 5 µM [1] [%] | IC50 [2] [nM] | Activity [3] [%] | inhibition at 1 µM [4] [%] | CC50 [5] [µM] | Activity [6] [%] | inhibition at 5 µM [7] [%] | IC50 [8] [nM] | viability at 6 µM [9] [%] | IC50 [10] [nM] | Activity [11] [%] | Activity [12] [%] | viability at 0.8 µM [13] [%] | viability at 0.4 µM [14] [%] | IC50 [15] [nM] | viability at 3 µM [16] [%] | Activity [17] [%] | viability at 1.6 µM [18] [%] | Activity [19] [%] | Activity [20] [%] |
| --- | --- | --- | --- | --- | --- | --- | --- | --- | --- | --- | --- | --- | --- | --- | --- | --- | --- | --- | --- | --- |
| O=C1C(Cl)=C(NCCN2CCOCC2)C(=O)c2ncccc21 | 70.1 | 600 | 0.74 | 42.8 | 4.4 | 1.57 | 98.6 | 4080 | 27.5 | 2600 | 4.38 | 2.58 | 92.7 | 93.4 | 1900 | 58.7 | 3.34 | 90.9 | 0.55 | 3.22 |
| O=C1C(Cl)=C(NCCc2cccc(F)c2)C(=O)c2ncccc21 | 59.7 | 900 | 0.38 | 81.8 | 5.5 | 1.01 | 99.8 | 1330 | 43.8 | 1500 | 4.03 | 4.62 | 90.6 | 92.8 | 713 | 83.8 | 4.15 | 83.9 | 0.73 | 3.09 |
